From US20210379063A1, “ORAL AMINODIHYDROPHTHALAZINEDIONE COMPOSITIONS AND THEIR USE IN THE TREATMENT OF NON-VIRAL HEPATITIS” (Immunopharma Plus D.O.O., priority 2018, published 2021)
Values joined by “and” are separate entries in the source; they are usually repeats but may differ in a detail not shown here. Identical values can stand only once. Like-named read-outs stand apart in the source and are kept apart here.

What was measured:
[1] = system: reparative liver regeneration after partial hepatectomy
Source text: Reparative liver regeneration was caused by the removal of ⅔ mass of the organ—partial hepatectomy by G. M. Higgis, R. M. Anderson.

porcine small intestine = details: for concentration in receptor compartment, small intestine, AVG / concentration in receptor compartment, small intestine: 10 mM donor solution; for concentration in receptor compartment, small intestine: single chambers
Protocol: Porcine Small Intestinal (SI) Permeability Procedure • Full thickness pig small intestinal delivered to Solubest on the day of the experiment. • Experiments were carried out on 6 slices 2 cm*2 cm with full thickness pig small intestinal sample • The intestinal was prepared so brush border side is facing the donor compartment. • According to Solubest protocol the excess mucus and connective tissue were removed • The receiver compartment contains 0.01M Phosphate Buffer pH 7.4 (PBS). • Receiver's samples were withdrawn at 5 time points (30 min, 60 min, 120 min, 4 hours and 6 hours). • Water pump was set to temp 38±1° C. in order to keep fixed temp in receptor department at 37±1° C.

[2] = Experimental: Title: FaSSGF: Fasted State Simulating Gastric Fluid
Preparation FaSSGF (for 2000 ml)
Name: FeSSGF: Fed State Simulating Gastric Fluid
Name: FaSSIF Fasted State Simulating Intestinal Fluid
Name: FeSSIF Fed State Simulating Intestinal Fluid
For preparation of 2 L media
Name: SCoF (Simulated Colonic Fluid)
Preparation of 100 ml solution
Prior to testing • Lactobacilli drops (100 million per dissolution/20 million per permeation donor compartment) added
Each presented dissolution data is a summary of 3 results.

[3] = system: hepatitis caused by pesticides
Source text: Clinically, this is manifested by pallor, fatigue, shortness of breath on exertion, hypoxia of the organs, respectively, and of the organism as a whole. The lipid peroxidation that develops at the same time causes tissue damage, and in response, macrophages infiltrate and generate oxygen radicals and pro-inflammatory cytokines (TNF, IL, etc.), thereby contributing their destructive potential to the development of the pathological process.

macrophages = details: cited from earlier work
porcine stomach (cardia) = details: 10 mM donor solution

With Nc1cccc2c(=O)[n-][nH]c(=O)c12.[Na+] [Tamerit, aminodihydrophthalazinedione sodium] the “The size of the nucleus of hepatocytes, μm” value ([1]; hepatectomy 17 hours + Tamerit) was 7.67 ± 0.28 μm, the “increase of the number of hepatocytes that divide by mitosis” value ([1]; regenerating liver) was “by an order of magnitude” and the “concentration in receptor compartment, small intestine, AVG” value (“concentration … small intestine, AVG” for short) (porcine small intestine; 0 min) was 0 ng/mL. For the same compound, the “concentration in receptor compartment, small intestine” value (porcine small intestine; 0 min) was 0 ng/mL, the “concentration … small intestine, AVG” value (porcine small intestine; 30 min) was 1000 ng/mL and the “concentration … small intestine, AVG” value (porcine small intestine; 60 min) was 3000 ng/mL. For the same compound, the “concentration in receptor compartment, small intestine” value (porcine small intestine; 60 min, sodium) was 3500 ng/mL and 2400 ng/mL, the “concentration … small intestine, AVG” value (porcine small intestine; 120 min) was 6000 ng/mL and the “concentration in receptor compartment, small intestine” value (porcine small intestine; 120 min, sodium) was 5400 ng/mL and 5600 ng/mL and 9100 ng/mL and 5100 ng/mL. For the same compound, the “concentration … small intestine, AVG” value (porcine small intestine; 240 min) was 12000 ng/mL, the “concentration … small intestine, AVG” value (porcine small intestine; 360 min) was 23000 ng/mL and the “concentration in receptor compartment, small intestine” value (porcine small intestine; 360 min, sodium) was 26400 ng/mL and 19500 ng/mL and 28700 ng/mL and 19000 ng/mL. For the same compound, the “Tamerit Permeability vs Propranolol Permeability” value (porcine small intestine; small intestine, FIG. 11) was “permeates better than propranolol”, the “permeation compared with Propranolol” value (porcine small intestine; small intestine, after 4 hours) was “three time better than Propranolol” and the “Dissolution, %” value ([2]; FaSSGF pH 1.6, 15 min) was 88.24%. For the same compound, the “Dissolution, %” value ([2]; FaSSGF pH 1.6, 30 min) was 90.68%, the “Dissolution, %” value ([2]; FaSSIF pH 6.5, 30 min, sodium) was 98.62% and the “Dissolution, %” value ([2]; FaSSIF pH 6.5, 60 min) was 103.11%. The “Dissolution, %” value ([2]; FaSSIF pH 6.5, 90 min) was 102.16%, the “Dissolution, %” value ([2]; FaSSIF pH 6.5, 120 min) was 102.37% and the “Dissolution, %” value ([2]; FaSSIF pH 6.5, 180 min) was 103.78%. For the same compound, the Dissolution, % ([2]; FeSSCoF pH 6.0, 15 min, sodium) was 90% and 90.07%, the Dissolution, % ([2]; FeSSCoF pH 6.0, 2 hr) was 89.21% and the Dissolution, % ([2]; FeSSCoF pH 6.0, 4 hr, sodium) was 100% and 102.12%. For the same compound, the Dissolution, % ([2]; FeSSCoF pH 6.0, 24 hr) was 95.77%, the “Dissolution, %” value ([2]; FeSSGF pH 5.0, 15 min) was 86.83% and the “Dissolution, %” value ([2]; FeSSGF pH 5.0, 30 min) was 77.65%. For the same compound, the “Dissolution, %” value ([2]; FeSSGF pH 5.0, 45 min) was 75.6%, the “Dissolution, %” value ([2]; FeSSGF pH 5.0, 90 min) was 79.42% and the “Dissolution, %” value ([2]; FeSSIF pH 5.0, 30 min) was 79.65%. For the same compound, the “Dissolution, %” value ([2]; FeSSIF pH 5.0, 60 min) was 69.28%, the “Dissolution, %” value ([2]; FeSSIF pH 5.0, 90 min, sodium) was 90% and 87.40% and the “Dissolution, %” value ([2]; FeSSIF pH 5.0, 120 min) was 84.48%. The “Dissolution, %” value ([2]; FeSSIF pH 5.0, 180 min) was 88.50%, the “pH at which Tamerit is the most soluble” value ([2]; Tamerit powder dissolution, FIG. 2) was 6.5 and the stability ([2]; colonic conditions) was “very stable”. The stability ([2]; fast and fed conditions of the small intestinal) was “quite stable”, the stability ([2]; fast and fed gastric conditions) was “sufficient stability” and the dissolution ([2]; fast gastric media) was ~90%. The dissolution ([2]; fed gastric media) was 80-90%, the “AST and ALT” value ([3]; after the end of treatment, AST-80, ALT-98 before) was “within normal limits” and the Hemoglobin ([3]; at discharge after enteric-coated 100 mg tablets, 89 before) was 120. For the same compound, the “patient's condition” value ([3]; third day from the start of treatment) was “improved”, the “duration of reversible suppression of macrophage hyperactivity” value (macrophages; acute inflammatory diseases) was 10 to 12 h and the excretion (macrophages) was “rapidly excreted”. The toxicity (macrophages) was “extremely low toxicity”, the “concentration in receptor compartment, Tamerit stomach, AVG” value (shortened to “concentration … Tamerit stomach, AVG”) (porcine stomach (cardia); 0 min) was 0 ng/mL and the “concentration in receptor compartment, Tamerit stomach” value (porcine stomach (cardia); 0 min, single chambers) was 0 ng/mL. For the same compound, the “concentration … Tamerit stomach, AVG” value (porcine stomach (cardia); 15 min) was 50 ng/mL, the “concentration … Tamerit stomach, AVG” value (porcine stomach (cardia); 30 min) was 41 ng/mL and the “concentration … Tamerit stomach, AVG” value (porcine stomach (cardia); 45 min) was 69 ng/mL. For the same compound, the “concentration … Tamerit stomach, AVG” value (porcine stomach (cardia); 90 min) was 85 ng/mL and the “concentration … Tamerit stomach, AVG” value (porcine stomach (cardia); 120 min) was 104 ng/mL.
